Results: patent publication US20230278983A1, “INDOLE DERIVATIVES AND USES THEREOF FOR TREATING A CANCER” (Universite Claude Bernard Lyon 1, priority 2020, published 2023)
pIC50: −log10 of the molar value. Like-named read-outs stand apart in the source and are kept apart here.

Molecular target: CK2 (Homo sapiens (Human), UniProt P68400)
Assay: Radiometric CK2 kinase assay
Assay type: biochemical
Settings: for inhibition at 1 µM: compound at 1 μM
[1] = inhibition of CK2 activity, ATP 10 μM

Sequence of CK2 (P68400 whole entry): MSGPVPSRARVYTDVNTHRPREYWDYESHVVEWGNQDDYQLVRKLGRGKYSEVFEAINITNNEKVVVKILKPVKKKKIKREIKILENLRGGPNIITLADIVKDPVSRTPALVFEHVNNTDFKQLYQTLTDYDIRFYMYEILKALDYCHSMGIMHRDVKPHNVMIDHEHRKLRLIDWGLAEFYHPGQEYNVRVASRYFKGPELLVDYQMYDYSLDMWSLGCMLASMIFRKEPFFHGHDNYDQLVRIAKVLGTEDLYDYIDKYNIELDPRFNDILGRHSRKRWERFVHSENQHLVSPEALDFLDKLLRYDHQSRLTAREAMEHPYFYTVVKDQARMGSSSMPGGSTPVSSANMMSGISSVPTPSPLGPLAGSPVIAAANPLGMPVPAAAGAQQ

SMILES | pIC50 | pIC50 [1] | other results
CC(C)COC(=O)c1[nH]c2ccc(F)cc2c1-c1cn(CC2CCN(Cc3ccc(-c4cccc(C(C)C)c4)c(Cl)c3)CC2)nn1 [AB758, Isobutyl 3-(1-((1-((2-chloro-3′-isopropyl-[1,1′-biphenyl]-4-yl)methyl)piperidin-4-yl)methyl)-1H-1,2,3-triazol-4-yl)-5-fluoro-1H-indole-2-carboxylate] |  |  | inhibition at 1 µM (ATP 10 μM): 17%
CC(C)COC(=O)c1[nH]c2ccc(F)cc2c1-c1cn(CC2CCN(Cc3ccc(OCC(C)C)c(Cl)c3)CC2)nn1 [AB760, Isobutyl 3-(1-((1-(3-chloro-4-isobutoxybenzyl)piperidin-4-yl)methyl)-1H-1,2,3-triazol-4-yl)-5-fluoro-1H-indole-2-carboxylate] |  |  | inhibition at 1 µM (ATP 10 μM): 15%
CC(C)COC(=O)c1[nH]c2ccc(F)cc2c1-c1cn(CC2CCN(CCNS(=O)(=O)c3ccc(OC(F)(F)F)cc3)CC2)nn1 [AB912, isobutyl 5-fluoro-3-(1-((1-(2-((4-(trifluoromethoxy)phenyl)sulfonamido)ethyl)piperidin-4-yl)methyl)-1H-1,2,3-triazol-4-yl)-1H-indole-2-carboxylate] | 6.52 |  | 
CC(C)COC(=O)c1[nH]c2ccc(F)cc2c1-c1cn(CC2CCN(CCNS(=O)(=O)c3ccc(-c4ccccc4)cc3)CC2)nn1 [AB913, isobutyl 3-(1-((1-(2-([1,1′-biphenyl]-4-sulfonamido)ethyl)piperidin-4-yl)methyl)-1H-1,2,3-triazol-4-yl)-5-fluoro-1H-indole-2-carboxylate] | 7.10 |  | 
CC(C)COC(=O)c1[nH]c2ccc(F)cc2c1-c1cn(CC2CCN(CCNS(=O)(=O)c3ccc(C4CCCCC4)cc3)CC2)nn1 [AB914, isobutyl 3-(1-((1-(2-((4-cyclohexylphenyl)sulfonamido)ethyl)piperidin-4-yl)methyl)-1H-1,2,3-triazol-4-yl)-5-fluoro-1H-indole-2-carboxylate] | 7.15 |  | 
CC(C)COC(=O)c1[nH]c2ccc(F)cc2c1-c1cn(CC2CCN(CCNS(=O)(=O)c3ccc(OC(C)C)cc3)CC2)nn1 [AB917, isobutyl 5-fluoro-3-(1-((1-(2-((4-isopropoxyphenyl)sulfonamido)ethyl)piperidin-4-yl)methyl)-1H-1,2,3-triazol-4-yl)-1H-indole-2-carboxylate] | 6.22 |  | 
CC(C)COC(=O)c1[nH]c2ccc(F)cc2c1-c1cn(CC2CCN(CCNS(=O)(=O)N3CCC(Cc4ccccc4)CC3)CC2)nn1 [AB918, isobutyl 3-(1-((1-(2-((4-benzylpiperidine)-1-sulfonamido)ethyl)piperidin-4-yl)methyl)-1H-1,2,3-triazol-4-yl)-5-fluoro-1H-indole-2-carboxylate] |  | 6.40 | 
CC(C)COC(=O)c1[nH]c2ccc(F)cc2c1-c1cn(CC2CCN(CCNS(=O)(=O)N3CCC(c4ccccc4)CC3)CC2)nn1 [AB929, isobutyl 5-fluoro-3-(1-((1-(2-((4-phenylpiperidine)-1-sulfonamido)ethyl)piperidin-4-yl)methyl)-1H-1,2,3-triazol-4-yl)-1H-indole-2-carboxylate] |  | 7.24 | 
CC(C)COC(=O)c1[nH]c2ccc(F)cc2c1-c1cn(CC2CCN(CCNS(=O)(=O)c3ccc4c(c3)CCO4)CC2)nn1 [AB930, isobutyl 3-(1-((1-(2-((2,3-dihydrobenzofuran)-5-sulfonamido)ethyl)piperidin-4-yl)methyl)-1H-1,2,3-triazol-4-yl)-5-fluoro-1H-indole-2-carboxylate] |  |  | inhibition at 1 µM (ATP 10 μM): 45%
CCC(C)c1ccc(S(=O)(=O)NCCN2CCC(Cn3cc(-c4c(C(=O)OCC(C)C)[nH]c5ccc(F)cc45)nn3)CC2)cc1 (stereo not shown) [AB931, isobutyl 3-(1-((1-(2-((4-(sec-butyl)phenyl)sulfonamido)ethyl)piperidin-4-yl)methyl)-1H-1,2,3-triazol-4-yl)-5-fluoro-1H-indole-2-carboxylate] |  | 7.00 | 
CC(C)COC(=O)c1[nH]c2ccc(F)cc2c1-c1cn(CC2CCN(CCNS(=O)(=O)c3ccc4c(c3)CCC4)CC2)nn1 [AB932, isobutyl 3-(1-((1-(2-((2,3-dihydro-1H-indene)-5-sulfonamido)ethyl)piperidin-4-yl)methyl)-1H-1,2,3-triazol-4-yl)-5-fluoro-1H-indole-2-carboxylate] | 7.12 |  | 
CC(C)COC(=O)c1[nH]c2ccc(F)cc2c1-c1cn(CC2CCN(CCNS(=O)(=O)c3ccc(Oc4ccccc4)cc3)CC2)nn1 [AB933, isobutyl 5-fluoro-3-(1-((1-(2-((4-phenoxyphenyl)sulfonamido)ethyl)piperidin-4-yl)methyl)-1H-1,2,3-triazol-4-yl)-1H-indole-2-carboxylate] |  | 7.21 | 
CC(C)COC(=O)c1[nH]c2ccc(F)cc2c1-c1cn(CC2CCN(CCNS(=O)(=O)c3ccc(C(C)(C)C)cc3)CC2)nn1 [AB934, isobutyl 3-(1-((1-(2-((4-(tert-butyl)phenyl)sulfonamido)ethyl)piperidin-4-yl)methyl)-1H-1,2,3-triazol-4-yl)-5-fluoro-1H-indole-2-carboxylate] | 7.28 |  | 
CC(C)COC(=O)c1[nH]c2ccc(F)cc2c1-c1cn(CC2CCN(CCNS(=O)(=O)Cc3ccc(C(F)(F)F)cc3)CC2)nn1 [AB935, isobutyl 5-fluoro-3-(1-((1-(2-(((4-(trifluoromethyl)phenyl)methyl)sulfonamido)ethyl)piperidin-4-yl)methyl)-1H-1,2,3-triazol-4-yl)-1H-indole-2-carboxylate] |  | 7.31 | 
CC(C)COC(=O)c1[nH]c2ccc(F)cc2c1-c1cn(CC2CCN(CCNS(=O)(=O)Cc3ccc(Cl)cc3)CC2)nn1 [AB936, isobutyl 3-(1-((1-(2-(((4-chlorophenyl)methyl)sulfonamido)ethyl)piperidin-4-yl)methyl)-1H-1,2,3-triazol-4-yl)-5-fluoro-1H-indole-2-carboxylate] |  | 6.26 | 
CC(C)COC(=O)c1[nH]c2ccc(F)cc2c1-c1cn(CC2CCN(CCNS(=O)(=O)Cc3cccc(Cl)c3)CC2)nn1 [AB937, isobutyl 3-(1-((1-(2-(((3-chlorophenyl)methyl)sulfonamido)ethyl)piperidin-4-yl)methyl)-1H-1,2,3-triazol-4-yl)-5-fluoro-1H-indole-2-carboxylate] |  | 6.10 | 
CC(C)COC(=O)c1[nH]c2ccc(F)cc2c1-c1cn(CC2CCN(S(=O)(=O)c3ccc(C(C)(C)C)cc3)CC2)nn1 [AB938] |  |  | inhibition at 1 µM (ATP 10 μM): 5%
CC(C)COC(=O)c1[nH]c2ccc(F)cc2c1-c1cn(CC2CCN(S(=O)(=O)c3ccc4c(c3)OCC4)CC2)nn1 [AB939, isobutyl 3-(1-((1-((2,3-dihydrobenzofuran-6-yl)sulfonyl)piperidin-4-yl)methyl)-1H-1,2,3-triazol-4-yl)-5-fluoro-1H-indole-2-carboxylate] |  |  | inhibition at 1 µM (ATP 10 μM): 4%
CC(C)COC(=O)c1[nH]c2ccc(F)cc2c1-c1cn(CC2CCN(CCNS(=O)(=O)Cc3ccc(Br)cc3)CC2)nn1 [AB1030, isobutyl 3-(1-((1-(2-(((4-bromophenyl)methyl)sulfonamido)ethyl)piperidin-4-yl)methyl)-1H-1,2,3-triazol-4-yl)-5-fluoro-1H-indole-2-carboxylate] |  | 7.27 | 
CC(C)COC(=O)c1[nH]c2ccc(F)cc2c1-c1cn(CC2CCN(CCNS(=O)(=O)Cc3cccc(Br)c3)CC2)nn1 [AB1031, isobutyl 3-(1-((1-(2-(((3-bromophenyl)methyl)sulfonamido)ethyl)piperidin-4-yl)methyl)-1H-1,2,3-triazol-4-yl)-5-fluoro-1H-indole-2-carboxylate] |  | 6.82 | 
CC(C)COC(=O)c1[nH]c2ccc(F)cc2c1-c1cn(CC2CCN(CCNS(=O)(=O)c3ccc(-c4cn[nH]c4)cc3)CC2)nn1 [AB1032, isobutyl 3-(1-((1-(2-((4-(1H-pyrazol-4-yl)phenyl)sulfonamido)ethyl)piperidin-4-yl)methyl)-1H-1,2,3-triazol-4-yl)-5-fluoro-1H-indole-2-carboxylate] | 6.70 |  | 
CC(C)COC(=O)c1[nH]c2ccc(F)cc2c1-c1cn(CC2CCN(CCNS(=O)(=O)c3ccc(C4=CCC(F)(F)CC4)cc3)CC2)nn1 [AB1070, isobutyl 3-(1-((1-(2-((4′,4′-difluoro-2′,3′,4′,5′-tetrahydro-[1,1′-biphenyl])-4-sulfonamido)ethyl)piperidin-4-yl)methyl)-1H-1,2,3-triazol-4-yl)-5-fluoro-1H-indole-2-carboxylate] | 6.70 |  | 
CC(C)COC(=O)c1[nH]c2ccc(F)cc2c1-c1cn(CC2CCN(CCNS(=O)(=O)c3ccc(-c4ccoc4)cc3)CC2)nn1 [AB1071, isobutyl 5-fluoro-3-(1-((1-(2-((4-(furan-3-yl)phenyl)sulfonamido)ethyl)piperidin-4-yl)methyl)-1H-1,2,3-triazol-4-yl)-1H-indole-2-carboxylate] | 7.19 |  | 
CC(C)COC(=O)c1[nH]c2ccc(F)cc2c1-c1cn(CC2CCN(CCNS(=O)(=O)c3ccc4c(c3)OCCCO4)CC2)nn1 [AB1072, isobutyl 3-(1-((1-(2-((3,4-dihydro-2H-benzo[b][1,4]dioxepine)-7-sulfonamido)ethyl)piperidin-4-yl)methyl)-1H-1,2,3-triazol-4-yl)-5-fluoro-1H-indole-2-carboxylate] | 7.00 |  | 
CC(C)COC(=O)c1[nH]c2ccc(F)cc2c1-c1cn(CC2CCN(CCNS(=O)(=O)c3ccc(-c4cccnc4N4CCCC4)cc3)CC2)nn1 [AB1073, isobutyl 5-fluoro-3-(1-((1-(2-((4-(2-(pyrrolidin-1-yl)pyridin-3-yl)phenyl)sulfonamido)ethyl)piperidin-4-yl)methyl)-1H-1,2,3-triazol-4-yl)-1H-indole-2-carboxylate] | 7.74 |  | 
CC(C)COC(=O)c1[nH]c2ccc(F)cc2c1-c1cn(CC2CCN(CCNS(=O)(=O)c3ccc(C4=CCOCC4)cc3)CC2)nn1 [AB1074, isobutyl 3-(1-((1-(2-((4-(3,6-dihydro-2H-pyran-4-yl)phenyl)sulfonamido)ethyl)piperidin-4-yl)methyl)-1H-1,2,3-triazol-4-yl)-5-fluoro-1H-indole-2-carboxylate] | 7.16 |  | 
CC(C)COC(=O)c1[nH]c2ccc(F)cc2c1-c1cn(CC2CCN(CCNS(=O)(=O)c3ccc(-c4ccccc4CN4CCOCC4)cc3)CC2)nn1 [AB1075] |  | 7.10 | 
Cc1noc(C)c1-c1ccc(S(=O)(=O)NCCN2CCC(Cn3cc(-c4c(C(=O)OCC(C)C)[nH]c5ccc(F)cc45)nn3)CC2)cc1 [AB1130, isobutyl 3-(1-((1-(2-((4-(3,5-dimethylisoxazol-4-yl)phenyl)sulfonamido)ethyl)piperidin-4-yl)methyl)-1H-1,2,3-triazol-4-yl)-5-fluoro-1H-indole-2-carboxylate] | 7.31 |  | 
